The values below come from ChEMBL document CHEMBL1201862, “PubChem BioAssay data set” (2004).

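Growth conditions: 96-well plates. Treatment: test compound, 48 hours, 5 concentrations. Analysis: linear interpolation between bracketing concentrations; unreached endpoints set to highest concentration. GI50 is the concentration that inhibits growth by half.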 Active and inactive are the calls of the source. Cut-off read from the data, not from the text of the source: active = GI50 up to about 1.1 µM and inactive = higher. Some results are limits rather than exact numbers.

Holding throughout (assay): inhibition of tumour cell growth, NCI panel, 48 h
In assay [1] the test system is 786-0.
The subject of assay [2] is ACHN.
Assay [3] deals with BT-549.
Assay [4] concerns CAKI-1.
Assay [5] deals with COLO 205.
The test system of assay [6] is HCT-116.
For assay [7], the system named is LOX IMVI.
For assay [8], the system named is Malme-3M.
The test system of assay [9] is NCI-H23.
Assay [10] deals with OVCAR-3.
The test system of assay [11] is OVCAR-4.
The subject of assay [12] is SK-MEL-2.
The test system of assay [13] is SK-OV-3.
Assay [14] concerns SN12C.
Assay [15] relates to SNB-75.
Assay [16] concerns SR.
The test system of assay [17] is T47D.
Assay [18] deals with UACC-257.
Assay [19] concerns UO-31.
Assay [20] relates to EKVX.

Take `S=c1[nH]nc(Cc2ccccc2)c(=S)[nH]1`: the GI50 in [1] is > 100 µM (inactive); in assay [2] it was 4.8 µM (inactive); in [3], 35.2 µM (inactive); in [4], > 54.8 µM (inactive); in [5] it was > 79.6 µM (inactive); in assay [6], > 61 µM (inactive). Also, the GI50 was > 52.7 µM (inactive) in [7]; > 55.6 µM (inactive) in assay [8]; > 64.4 µM (inactive) in assay [9]; > 61.7 µM (inactive) in [10]; > 60.7 µM (inactive) in [11]; > 43.1 µM (inactive) in [12]. Moreover, the GI50 in assay [13] is > 81.5 µM (inactive); in [14], 65.3 µM (inactive); in [15], 23.1 µM (inactive); in assay [16] it was > 65 µM (inactive); in assay [17], 21.6 µM (inactive); in assay [18], > 56.8 µM (inactive). Also, the GI50 in assay [19] was 46.5 µM (inactive).

Turning to `O=C(c1ccccc1)N(CCCCNC(=O)C(F)(F)F)CCCNC(=O)C(F)(F)F`, the GI50 in assay [1], in assay [2], in [3], in assay [4], in assay [5] and in assay [20] was > 100 µM (inactive) throughout. For the same compound, the GI50 in assay [6], in [7], in assay [8], in [9], in assay [11] and in [13] was > 100 µM (inactive) throughout. For the same compound, the GI50 is > 100 µM (inactive) in assay [14]; 32.6 µM (inactive) in [15]; 0.94 µM (active) in [16]; > 100 µM (inactive) in assay [17]; > 100 µM (inactive) in assay [18]; > 100 µM (inactive) in assay [19].

As to `COc1ccc(OC2OC(CO)C(OCc3ccccc3)C(OCc3ccccc3)C2OCc2ccccc2)cc1` (stereo not given), the GI50 in assay [1] is 39.5 µM (inactive); in assay [2], 31.6 µM (inactive); in [3] it was > 100 µM (inactive); in assay [4], > 100 µM (inactive); in assay [5], 44.4 µM (inactive); in assay [20], 11.4 µM (inactive). Further, the GI50 in assay [6] is 14.8 µM (inactive); in [7], > 100 µM (inactive); in assay [8] it was 39.1 µM (inactive); in assay [9], 14.4 µM (inactive); in assay [10], > 100 µM (inactive); in [12], > 100 µM (inactive). In addition, the GI50 in assay [13] is > 100 µM (inactive); in assay [14], 17.5 µM (inactive); in [15], 11.3 µM (inactive); in assay [16], 15.5 µM (inactive); in assay [17], 18.8 µM (inactive); in assay [18], > 100 µM (inactive). Moreover, the GI50 in assay [19] was 41 µM (inactive).

Consider `CCC/C(=N\NC(=S)N1CC2CCC(CC2)C1)c1ccccn1`, for which the GI50 was 0.438 µM (active) in assay [1]; 0.131 µM (active) in assay [2]; 0.3 µM (active) in assay [3]; 1.21 µM (inactive) in [4]; 0.0205 µM (active) in assay [5]; 0.0434 µM (active) in [20]. In addition, the GI50 was 0.0359 µM (active) in [6]; 0.542 µM (active) in assay [7]; 0.422 µM (active) in [9]; 0.254 µM (active) in assay [10]; 0.395 µM (active) in [11]; 0.0813 µM (active) in assay [12]. The GI50 is 0.927 µM (active) in [13]; 0.395 µM (active) in assay [14]; 0.185 µM (active) in [15]; 0.0495 µM (active) in [16]; 0.00425 µM (active) in assay [17]; 0.0252 µM (active) in assay [18]. In addition, the GI50 in [19] is 1.1 µM (active).

On to `CC(=O)NC1=C(Sc2ccc(Cl)cc2)C(=O)c2ccccc2C1=O`, for which the GI50 in assay [1] was 2.09 µM (inactive); in assay [2], 1.8 µM (inactive); in assay [3] it was 4.81 µM (inactive); in assay [4], 3.7 µM (inactive); in assay [5] it was 2 µM (inactive); in [20], 5.71 µM (inactive). The GI50 was 3.55 µM (inactive) in assay [7]; 2.97 µM (inactive) in assay [8]; 5.28 µM (inactive) in [9]; 2.05 µM (inactive) in assay [10]; 1.63 µM (inactive) in [11]; 3.88 µM (inactive) in assay [12]. The GI50 in assay [13] was 15.7 µM (inactive); in [14], 4.67 µM (inactive); in assay [16], 2.21 µM (inactive); in assay [17], 2.06 µM (inactive); in assay [18], 5.33 µM (inactive); in [19], 1.95 µM (inactive).

As for `COC(=O)C1(C(=O)OC)N=C(C)OC1c1ccoc1` (stereo not given), the GI50 in assay [1], in assay [2], in [3], in assay [4], in assay [5] and in assay [20] was > 100 µM (inactive) each time. For the same compound, the GI50 in assay [6], in [7], in assay [9], in assay [10], in [11] and in assay [12] was > 100 µM (inactive) in each case. The GI50 in assay [13], in [14], in assay [15], in [16], in assay [17] and in [18] was > 100 µM (inactive) each time. Besides, the GI50 in [19] was > 100 µM (inactive).

As for `N#Cc1c(-c2ccccc2)cc(-c2ccc(Cl)cc2)[nH]c1=S`, the GI50 in assay [1] was 53.3 µM (inactive); in assay [2] it was 21.5 µM (inactive); in [3], 41.5 µM (inactive); in assay [4] it was 51.4 µM (inactive); in assay [5] it was 25.4 µM (inactive); in [20], 30.4 µM (inactive). Further, the GI50 in assay [6] is 33.1 µM (inactive); in assay [7] it was 25.5 µM (inactive); in [8], 27 µM (inactive); in assay [9] it was 4.06 µM (inactive); in [10], 38.8 µM (inactive); in assay [11], 42.6 µM (inactive). For the same compound, the GI50 in assay [13] is 27.4 µM (inactive); in assay [14], 39.5 µM (inactive); in assay [15], 37.1 µM (inactive); in [16], 23.8 µM (inactive); in [17], 18.7 µM (inactive); in assay [19] it was 24.8 µM (inactive).

For `O=C1c2cc(-c3ccccc3)cnc2S(=O)(=O)N1c1ccc(Br)cc1`, the GI50 is 37.6 µM (inactive) in assay [1]; > 100 µM (inactive) in [2]; > 100 µM (inactive) in [3]; 40.4 µM (inactive) in [4]; > 100 µM (inactive) in assay [5]; > 100 µM (inactive) in assay [20]. In addition, the GI50 in [6] is 71.9 µM (inactive); in assay [7], 41.1 µM (inactive); in assay [8] it was 20.3 µM (inactive); in assay [9], 63.1 µM (inactive); in assay [10], 47.1 µM (inactive); in assay [12] it was 96.2 µM (inactive). For the same compound, the GI50 in [13] was 26.2 µM (inactive); in [14], > 100 µM (inactive); in [15] it was 25.1 µM (inactive); in assay [16], 10.3 µM (inactive); in assay [17] it was 37.7 µM (inactive); in [18], > 100 µM (inactive). For the same compound, the GI50 in assay [19] is > 100 µM (inactive).

As to `Oc1cccc(-c2cn3cc(Cl)ccc3n2)c1`, the GI50 in assay [1] is 66.2 µM (inactive); in assay [2], 43.9 µM (inactive); in assay [3] it was 51.1 µM (inactive); in assay [4] it was 70 µM (inactive); in assay [5], 33.6 µM (inactive); in assay [20], 24.3 µM (inactive). In addition, the GI50 in assay [6] is 57.9 µM (inactive); in [7], 45.7 µM (inactive); in [8], 51.6 µM (inactive); in [9], 51.8 µM (inactive); in assay [10] it was 31.7 µM (inactive); in assay [11], 32.1 µM (inactive). Further, the GI50 was 38.8 µM (inactive) in assay [12]; 96.6 µM (inactive) in assay [13]; 57.1 µM (inactive) in assay [14]; 47.2 µM (inactive) in assay [16]; 12.7 µM (inactive) in assay [17]; 25.6 µM (inactive) in [18]. The GI50 in [19] was 36.7 µM (inactive).

As to `C=CCN1C(=O)CC2[C@@H]3CCc4cc(O)ccc4C3CC[C@]2(C)C1=O` (stereo not given in full), the GI50 in assay [1], in assay [2], in [3], in assay [4], in [5] and in assay [20] was > 10 µM (inactive) in each case. Further, the GI50 in assay [6], in assay [7], in assay [8], in assay [9], in assay [10] and in assay [11] was > 10 µM (inactive) each time. Further, the GI50 in [12], in assay [13], in assay [14], in [16], in [17] and in assay [18] was > 10 µM (inactive) throughout. For the same compound, in [19], the GI50 is > 10 µM (inactive).

As to `CSC(=S)N(C)C` [CYSTOGON], the GI50 in assay [1], in assay [3], in assay [4], in [5], in assay [20] and in assay [6] was > 100 µM (inactive) throughout. Also, the GI50 in assay [7], in [8], in assay [9], in [10], in assay [12] and in [13] was > 100 µM (inactive) throughout. Also, the GI50 was > 100 µM (inactive) in assay [14]; 80 µM (inactive) in assay [15]; > 100 µM (inactive) in assay [16]; > 100 µM (inactive) in assay [17]; > 100 µM (inactive) in [18]; > 100 µM (inactive) in assay [19].
